# In patent US20250195523A1, “ORGANIC MOLECULES FOR TREATING MYELIN PATHOLOGIES” (ICM (INSTITUT DU CERVEAU ET DE LA MOELLE ÉPINIÈRE), priority 2022, published 2025):
# How the values were obtained:
# [1] = system: primary OPCs purified by magnetic cell sorting (MACS) from neonatal cortices; experiment: Primary OPC cultures purified by MACS, morphological complexity of OLs; format: cell-based, mice; settings: OPCs treated for two days; compared to vehicle; FIG. 2B
# Description: Brains were collected from PLPGFP and P4 Swiss mice […] and washed 3 times in PBS 1× (Invitrogen) with 1% of penicillin/streptomycin (Sigma). Cortex and corpus callosum were dissected and dissociated using neural tissue dissociation kit (T) (Miltenyi biotec) and with dissociator (gentleMACS Octo Dissociator, Miltenyi Biotec). OPC magnetic cell sorting was performed using anti-PDGFRα-coupled-beads (CD140a-PDGFRα MicroBead Kit, Miltenyi biotec) and MultiMACS Cell24 Separator Plus (Miltenyi biotec). Cells were collected in PBS and amplified for 2 days in a proliferating medium (with growth factors IGF, EGF, FGF, and PDGFα). Then, 40.000 cells were plated in 24 well plates adherent on coverslips, beforehand coated with poly-ornithine (Merck) diluted in 4 volumes of H2O and washed 3 times. Successively, for 2 days of proliferation and differentiation, medium was added with drugs at 250 nM, 500 nM and 750 nM, and their respective vehicles (DMSO, PBS). Cells were fixed in 4% PBS-paraformaldehyde (thermo fisher) for 10 minutes and washed 3 times in PBS-1×.
# For coated-coverslip, blocking was performed in a moist chamber for 30 mn at room temperature (RT) in the blocking buffer (0.05% Triton X-100/10% normal goat serum/PBS). Then, coverslip were incubated for 30 mn with the following primary antibodies at RT. Rat anti-PDGFRα (1:250, BD Biosciences); Mouse anti-CNPase (mlgG1, 1:250; Millipore); Rabbit anti-Btub (1:1000; BABCO); Chicken anti-GFAP (1:500, Avelabs), Mouse anti-MBP (mlgG1, 1:150; Abcam); Rabbit anti-Sox10 (1:1000; Proteintech). Following 3 washing in 0.05% Triton X-100/PBS, coverslips were incubated 30 min at RT in dark with appropriate secondary antibodies conjugated with Alexa Fluor 488, 594 and 647 (1:1000; Molecular Probes or Thermo Fisher) and Dapi (1:5000 from working solution at 5 mg/ml; Life Technologies; D1306). Coverslips were washed 3 times in 0.05% Triton X-100/PBS and mounted with Fluoromount-G (SouthernBiotech).
# To evaluate cell specific contribution of the drugs directly in OL differentiation and maturation, we used primary OPCs purified by magnetic cell sorting (MACS) from neonatal cortices (P4).
# [2] = system: neural progenitor cells (NPCs) obtained from the neonatal SVZ; experiment: Neonatal neural progenitor cell (neurosphere-derived) differentiation cultures, immunodetection of neural lineages; format: cell-based, mice; settings: for neurogenesis (neuronal β-III-tubulin+ cells): 750 nM, compared to vehicle, FIG. 1D; for increase in iOLs (Sox10high cells): fold-change between drug treatment and vehicle, FIG. 1G
# Description: NSC medium was prepared using up to 50 ml DMEM/F12 (Gibco), containing 666 μl glucose at 45% (Sigma), 0.5 ml penicillin/streptomycin (Sigma), 250 μl HEPES buffer at 1M (Gibco), 500 μl mL N2 supplement (Gibco), 1 mL B27 supplement (Gibco) and with growth factors Insulin 20 μg/ml (Sigma), EGF at 20 ng/ml (Peprotech), FGF 10 ng/ml (Peprotech). Brains were collected from Swiss mice at P0 and washed 3 times in PBS 1× (Invitrogen) with 1% of penicillin/streptomycin (Sigma). SVZ was dissected, transferred in fresh NSC medium and dissociated with pipette. Cells were amplified in a 25 ml flask (1 million of cells for 5 mL of medium), and maintained in a humidified atmosphere at 37° C. and 5% of CO2. Two-three days after, cells have grown as floating neurospheres and were collected by centrifugation at 500 g for 5 mn, dissociated before adding proliferating NSC medium. After 2 passages, 30.000 cells were plated in 24 well plates adherent on coverslips, beforehand coated with poly-ornithine (Merck) diluted in 4 volumes of H2O and washed 3 times. Drugs were added at different ranges of concentration (250 nM, 500 nM and 750 nM) and their respective vehicles (DMSO, or PBS). Medium (including drugs or vehicle) was changed each 2 days. After 4 days with proliferation factors, a differentiation medium without growth factors was added (with drugs or vehicle) for two days. Cells were washed once in PBS, fixed in 4% PBS-paraformaldehyde (thermofischer) for 10 minutes, and washed 3 times in PBS-1×.
# To do so, we first used a culture of mix neural progenitor cells (NPCs) obtained from the neonatal SVZ (postnatal day 1, P1). […] We supplemented the drugs in both the proliferation and differentiation medium to analyze both their effect in neural cell type specification into the different neural lineages, and assess their ability to foster OPC differentiation. […]
# [3] = system: focal demyelination in the corpus callosum of adult mice; experiment: Lysolecithin (LPC) induced focal de/remyelination model in adult mice, oral administration in drinking water; format: in vivo; settings: 7 dpl, oral daily
# Description: We weighted and anesthetized 4 months old RjOrl: SWISS mice (Janvier) with isoflurane (induced at 3%, and maintained at 1.2-1.6%). We induced focal demyelinating lesions by injecting 0.5 μl of a solution of 1% lysolecithin (LPC, Sigma in 0.9% NaCl solution) into the corpus callosum. To do so, a glass-capillary connected to a 10 μl Hamilton syringe was fixed and oriented through stereotaxic apparatus (coordinates: 1 mm lateral, 1.3 mm rostral to Bregma, 1.7 mm deep to brain surface). Animals were left to recover for a few hours in a warm chamber. […] Mice was perfused at 2% cold paraformaldehyde (thermos fisher) at 7 DPI.
# For in-vivo cryosections (14-μm thick) of lesions, immunohistochemistry was performed after 30 mn drying at RT in a moist chamber. For myelin staining, ethanol treatment (100%) was performed for 10 mn at RT. Briefly, sections were permeabilized and blocked in a blocking buffer for 1 h (0.05% Triton X-100/10% normal goat serum/PBS). Then, cryosections were incubated overnight with the following primary antibodies at 4° C.: Mouse anti-APC (CC1 IgG2B; 1:100, calbiochem); Rabbit anti-Olig2 (1:500; Millipore); Mouse anti-Olig1 (IgG1; 1:500; NeuroMab); Rat anti-CD68 (1:500, AbD SEROTEC/BioRad); Rabbit anti-IBA1 (1:500, Wako Fujifilm); Mouse anti-MOOG (mlgG1, 1:20; Hybridoma). Then sections were washed 3 times in 0.05% Triton X-100/PBS and incubated 1 hour at RT with appropriate secondary antibodies conjugated with Alexa Fluor 488, 594 and 647 (1:1000; Molecular Probes or Thermo Fisher) and Dapi (1:5000 from working solution at 5 mg/ml; Life Technologies; D1306). Sections were washed 3 times in 0.05% Triton X-100/PBS and mounted with Fluoromount-G (SouthernBiotech).
# We analyzed the lesions at 7 days post-lesion (7 dpl), when newly formed OLs have started to remyelinate the lesion in this model. The lesion area was identified by immunodetection of the high cellular density with DAPI staining, reduction of myelin with myelin oligodendrocyte glycoprotein (MOG), and abundance of microglia/macrophages with Iba1 and Cd68. We determined the effect of the drugs to promote oligodendrogenesis at the lesion site by combinatory immunodetection of Olig2, CC1 and Olig1, allowing to distinguish OPCs (Olig2^high/CC1^−/Olig1^nuclear-cyto cells) and three stages in OL differentiation: iOL1 (Olig2^high/CC1^high/Olig1^− cells), iOL2 (Olig2^high/CC1^high/Olig1^high-cyto cells), and mOL (Olig2^low/CC1^low/Olig1^low cells). […] Given the increase in OL differentiation by the drugs administration, without diminishing the pool of OPCs in the lesion area, we assessed for the proliferative status of OPCs, using Mcm2 and Ki67 proliferative markers, finding that both drugs promote a ˜2-fold increase in the density of proliferative OPCs (FIG. 4D) and in the proportion of proliferative OPCs (FIG. 4E).
# To investigate the possible anti-inflammatory and pro-regenerative activity of these drugs, we performed staining for microglia/macrophages (Iba1+ cells), their active phagocytic status (Cd68+ cells), together with myelin (MOG) and cell density (DAPI) to identify the lesion area.
# [4] = system: cerebellar slices explants; experiment: Ex vivo cerebellar organotypic explant culture, differentiation and myelination index; format: cell-based, mice; settings: 750 nM, three days (7-10 DIV); for differentiation index (CC1+/Sox10+ OLs number): compared to negative controls, FIG. 3B
# Description: We prepared cerebellar organotypic cultures from newborn (P0) mice. Cerebellar parasagittal slices (350 μm thick) were cut on a McIlwain tissue chopper and transferred onto 30 mm diameter Millipore culture inserts with […] (Millicell, Millipore). Slices were maintained in incubators at 37° C., under a humidified atmosphere containing 5% CO2 in six-well-plates containing 1 mL of slice culture media. This medium includes basal medium eagle (Invitrogen), 25% complete HBSS, 27 mM D-glucose, 100 U/mL penicillin/streptomycin, 1 mM glutamine (Sigma) and 5% horse serum (New Zealand origin, heat inactivated; Invitrogen). Medium was renewed every 2 days until 7 DIV, reaching the appropriate culture periods to study OPC differentiation and myelination. […] Slices were collected and fixed for 1 h at RT in PBS-4% paraformaldehyde, washed 3 times in PBS, and incubated 20 min at 4° C. in Clark's solution (95% ethanol/5% acetic acid), then washed 3 times in PBS 1×.
# For ex-vivo cerebellar slices, slices were incubated 20 min at 4° C. in Clark's solution (95% ethanol/5% acetic acid), then washed 3 times in PBS 1×. Then, sections were incubated for 1 hour in a blocking buffer (0.2% Triton X-100/4% bovine serum albumin/4% donkey serum/PBS). Slices were incubated for 2 hours with the following primary antibodies at RT: Goat anti-Sox10 (1:100, R&D Systems); Rabbit anti-Calbindin (1:1000; Swant); Rat anti-MBP (1:200; Abcam); Mouse anti-CC1 (IgG2b; 1:100, Calbiochem). Then slices were washed 3 times in PBS/0.1% Triton X-100 and incubated in blocking buffer (dark, RT) for 2 hours with appropriate secondary antibodies conjugated with Alexa Fluor 488, 594 and 647 (1:1000; Molecular Probes or Thermo Fisher) and Dapi (1:5000 from working solution at 5 mg/ml; Life Technologies; D1306). Finally, slices were washed 3 times in PBS/0.1% Triton X-100 after incubation and mounted in Fluoromount-G (SouthernBiotech).
# Then, we firstly performed a simpler and faster experimental model using cerebellar slices explants to identify the best drugs having pro-oligodendrogenenic and pro-myelinating activities in this ex vivo model, to be used in the in vivo analyses. Indeed, this model allowed us to better assess later aspects of OL maturation, myelination, and cytotoxicity in a richer cellular system, also containing immune cells (microglia/macrophages) that are known to influence oligodendrogenesis and (re) myelination. In this model, the start of myelination takes place after 7 days in culture (FIG. 3A). […] We then analyzed the effect in terms of OL numbers (CC1+/Sox10+ cells) and myelination (MBP labeling on CaBP+ Purkinje cell axons), by immunodetection of all four markers in the same sections. We calculated the differentiation index as the ratio of Sox10+ cells being CC1+, and the myelination index as the ratio CaBP+ axons being MBP+. […] On the one hand, we used the adult focal de/remyelination induced by intracerebral injection of […] (LPC) mimicking de/remyelination of MS, and on the other hand, the neonatal chronic hypoxia model, mimicking PTB hypomyelination.
smiles,measurement,setting,value
"C[C@@H]1C(=O)O[C@H]2C[C@@]34[C@H]5C[C@@H](C(C)(C)C)[C@]36[C@@H](OC(=O)[C@@H]6O)O[C@@]4(C(=O)O5)[C@]21O [Sm6, Ginkgolide A]",morphological complexity of OLs (PLP+ cells),[1],strongly increased
"Nc1nc(=O)c2c([nH]1)NCC(CNc1ccc(C(=O)N[C@@H](CCC(=O)O)C(=O)O)cc1)N2C=O.[Ca+2] (stereo partly shown) [Sm11, Calcium folinate]",neurogenesis (neuronal β-III-tubulin+ cells),[2],positive effect
same,morphological complexity of OLs (PLP+ cells),[1],strongly increased
same,number of oligodendroglial cells in the remyelinating area (Olig2+ cells),"[3]; sm5 at 5 μg per g, control 942.5±265.7, FIG. 4B",1558±331 Olig2+ cells per mm^2
same,density of OPCs (Olig2high/CC1−/Olig1nuclear-cyto cells) in the lesion area,[3]; FIG. 4C,did not change
same,pro-regenerative microglia (Arg1+ cells),[3]; FIG. 4I,corresponding increase
same,actively phagocytic microglia/macrophages (Cd68+ cells),"[3]; control 22.45%, FIG. 4H",12.13%±5.14
same,surface occupied by Iba1+ microglia/macrophages in the lesion area,"[3]; control 33.64%, FIG. 4G",27.28%±4.16
same,"increase of each stage of OL differentiation (iOL1, iOL2 & mOL)",[3]; versus control,~2 fold
same,"increase in the density of proliferative OPCs (Mcm2, Ki67 markers)","[3]; versus control, FIG. 4D",~2 fold
same,increase in the proportion of proliferative OPCs,"[3]; versus control, FIG. 4E",~2 fold
"Cc1cc2c(cc1S(N)(=O)=O)S(=O)(=O)CCC2 [Sm1, Meticrane]",morphological complexity of OLs (PLP+ cells),[1],strongly increased
same,differentiation index (CC1+/Sox10+ OLs number),[4],increased differentiation index
"CC(N)CCCC(C)(C)O (stereo not shown) [Sm2, Heptaminol]",morphological complexity of OLs (PLP+ cells),[1],strongly increased
same,differentiation index (CC1+/Sox10+ OLs number),[4],increased differentiation index
same,"myelination process (MBP+/CaBP+), myelination index","[4]; compared to vehicle, FIG. 3C",robust increase
"C#C[C@]1(O)CC[C@H]2[C@@H]3CCC4=CC(=O)CC[C@@H]4[C@H]3CC[C@@]21CC [Sm7, Levonorgestrel]",increase in iOLs (Sox10high cells),[2],increased tendency not reaching statistical significance
"S=C(NC1CCCCC1)N1CCC(c2cnc[nH]2)CC1 [Sm9, Thioperamide]",neurogenesis (neuronal β-III-tubulin+ cells),[2],positive effect
"OC(CCN1CCCCC1)(c1ccccc1)C1CCCCC1 (stereo not shown) [Sm10, Trihexyphenidyl]",increase in iOLs (Sox10high cells),[2],increased tendency not reaching statistical significance
